Data taken from US6228868A, “Oxazoline antiproliferative agents” (Abbott Laboratories, priority 1999, dated 2001).

How the values were obtained:
NCI-H460 cells = assay: 48-hour cellular proliferation assay, sulforhodamine stain (human lung large cell carcinoma, MDR negative); assay type: cell-based; conditions: for IC50 / inhibition at 100 µM: Homo sapiens; for IC50: NCI-H460 cells
Procedure: (§1) Compounds of this invention were tested in a 48-hour cellular proliferation assay that uses human colon adenocarcinoma, MDR positive (HCT-15) cells, and human lung large cell carcinoma, MDR negative (NCI-H460) cells, in the 96-well microtitre format described in Skehan P., et al. New Colorimetric Cytotoxicity Assay for Anticancer Drug Screening. 1990, J. Natl. Cancer Inst. 82:1107-1112, hereby incorporated by reference. Briefly, the wells of a microtitre plate were charged sequentially with cultured cells and compounds of the invention (1.0×10^-4 to 1.0×10^-11 M in 10% DMSO prepared by dissolving compounds of the invention in DMSO and adding 11 μL of the DMSO solution to 100 μL of culture medium for a final DMSO concentration of 10%). Two of the following controls were also present in each microtitre plate: a solvent (DMSO) control without drug that yielded a 0% inhibition level and a trichloroacetic acid-treated well that yielded a 100% inhibition level. The cells were grown in culture (37° C., 5% CO2 atmosphere) for 48 hours then fixed by the addition of trichloroacetic acid. The wells were stained with sulforhodamine, washed with 1% acetic acid, and treated with 0.01 M tris buffer (100 μL) to solubilize the adherent dye. The absorbance of the dye solution was measured with a Molecular Devices SpectraMax340 plate reader. Percent inhibition and Inhibitory Concentrations (IC50) values were obtained by calculating the proportional response of the experimental values to the absorbance values of the controls.

HCT-15 cells = assay: 48-hour cellular proliferation assay, sulforhodamine stain (human colon adenocarcinoma, MDR positive); assay type: cell-based; conditions: for IC50 / inhibition at 100 µM: Homo sapiens
Procedure: as §1

COc1cc(C2CN=C(c3cn(C)c4ccccc34)O2)cc(OC)c1OC (centres unmarked) [Example 33, 2-(1-methylindol-3-yl)-5-(3,4,5-trimethoxyphenyl)-Δ2,3-oxazoline]
IC50 (NCI-H460 cells; values in nM): 120 nM | IC50 (HCT-15 cells; values in nM): 32 nM

COc1cc(C2CN=C(c3ccc4c(ccn4C(=S)SC)c3)O2)cc(OC)c1OC (centres unmarked) [Example 56, 2-(1-methlthiothiocarbonylindol-5-yl)-5-(3,4,5-trimethoxyphenyl)-Δ2,3-oxazoline]
IC50 (NCI-H460 cells; values given in μM): 6000 nM | IC50 (HCT-15 cells; values given in μM): 12000 nM

COc1cc(C2CN=C(c3ccc4c(c3)nc(C)n4C)O2)cc(OC)c1OC (centres unmarked) [Example 75, 2-(1,2-dimethylbenzimidazol-5-yl)-5-(3,4,5-trimethoxyphenyl)-Δ2,3-oxazoline]
IC50 (NCI-H460 cells; values given in μM): 3800 nM | IC50 (HCT-15 cells; values given in μM): 1900 nM

COc1cc(C2CN=C(c3cccc4[nH]ccc34)O2)cc(OC)c1OC (centres unmarked) [Example 29, 2-(4-indolyl)-5-(3,4,5-trimethoxyphenyl)-Δ2,3-oxazoline]
IC50 (NCI-H460 cells; values in nM): 60 nM | IC50 (HCT-15 cells; values in nM): 39 nM

COc1cc(C2CN=C(c3ccc(N(C)C)cc3)O2)cc(OC)c1OC (centres unmarked) [Example 1, 2-(4-dimethylaminophenyl)-5-(3,4,5-trimethoxyphenyl)-Δ2,3-oxazoline]
inhibition at 100 µM (NCI-H460 cells; NCI-460 cells, 10^-4 M): 100% | inhibition at 100 µM (HCT-15 cells; 10^-4 M): 100%

COc1cc(C2CN=C(c3cc(F)c4c(ccn4C)c3)O2)cc(OC)c1OC (centres unmarked) [Example 64, 2-(1-methyl-7-fluoro-5-indolyl)-5-(3,4,5-trimethoxyphenyl)-Δ2,3-oxazoline]
IC50 (NCI-H460 cells; values in nM): 2.9 nM | IC50 (HCT-15 cells; values in nM): 3.96 nM

COc1cc(C2CN=C(c3cc4ccccc4[nH]3)O2)cc(OC)c1OC (centres unmarked) [Example 8, 2-(indol-2-yl)-5-(3,4,5-trimethoxyphenyl)-Δ2,3-oxazoline]
inhibition at 100 µM (NCI-H460 cells; NCI-460 cells, 10^-4 M): 100% | inhibition at 100 µM (HCT-15 cells; 10^-4 M): 100%

COc1cc(C2CN=C(c3cc(C)c4c(c3)cc(C)n4C)O2)cc(OC)c1OC (centres unmarked) [Example 74, 2-(1,2,7-trimethylindol-5-yl)-5-(3,4,5-trimethoxyphenyl)-Δ2,3-oxazoline]
IC50 (NCI-H460 cells; values given in μM): 1200 nM | IC50 (HCT-15 cells; values given in μM): 1300 nM

COc1ccc(C2=NCC(c3cc(OC)c(OC)c(OC)c3)O2)cc1 (centres unmarked) [Example 3, 2-(4-methoxyphenyl)-5-(3,4,5-trimethoxyphenyl)-Δ2,3-oxazoline]
inhibition at 100 µM (NCI-H460 cells; NCI-460 cells, 10^-4 M): 100% | inhibition at 100 µM (HCT-15 cells; 10^-4 M): 100%

2-(3-hydroxy-4-methoxyphenyl)-4-dimethyl-5-(3,4,5-trimethoxyphenyl)-Δ2,3-oxazoline [Example 13]
NCI-460 (% Inhibition at 10^-4 M) (NCI-H460 cells; NCI-460 cells, 10^-4 M): 100% | HCT-15 (% Inhibition at 10^-4 M) (HCT-15 cells; 10^-4 M): 100%

COc1cc(C2CN=C(c3ccc(C)c(N)c3)O2)cc(OC)c1OC (centres unmarked) [Example 40, 2-(3-amino-4-methyphenyl)-5-(3,4,5-trimethoxyphenyl)-Δ2,3-oxazoline]
IC50 (NCI-H460 cells; values in nM): 82 nM | IC50 (HCT-15 cells; values in nM): 62 nM

COc1cc(C2CN=C(c3ccn(C)c(=O)c3)O2)cc(OC)c1OC (centres unmarked) [Example 46, 2-(1-methyl-1H-pyridin-2-on-4-yl)-5-(3,4,5-trimethoxyphenyl)-Δ2,3-oxazoline]
IC50 (NCI-H460 cells; values in nM): 470 nM | IC50 (HCT-15 cells; values in nM): 440 nM

COc1cc(C2CN=C(c3cc4ccn(C)c4cc3Cl)O2)cc(OC)c1OC (centres unmarked) [Example 60, 2-(6-Chloro-1-methylindol-5-yl)-5-(3,4,5-trimethoxyphenyl)-Δ2,3-oxazoline]
IC50 (NCI-H460 cells; values in nM): 410 nM | IC50 (HCT-15 cells; values in nM): 280 nM

CCOc1ccc(C2=NCC(c3cc(OC)c(OC)c(OC)c3)O2)cc1 (centres unmarked) [Example 16, 2-(4-ethoxyphenyl)-5-(3,4,5-trimethoxyphenyl)-Δ2,3-oxazoline]
inhibition at 100 µM (NCI-H460 cells; NCI-460 cells, 10^-4 M): 90.7% | inhibition at 100 µM (HCT-15 cells; 10^-4 M): 96.2%

COc1cc(C2CN=C(c3nccc4ccccc34)O2)cc(OC)c1OC (centres unmarked) [Example 38, 2-(1-isoquinolinyl)-5-(3,4,5-trimethoxyphenyl)-Δ2,3-oxazoline]
IC50 (NCI-H460 cells; values given in μM): 78000 nM | IC50 (HCT-15 cells; values given in μM): 63000 nM

COc1cc(C2CN=C(c3cccc4cc[nH]c34)O2)cc(OC)c1OC (centres unmarked) [Example 31, 2-(7-indolyl)-5-(3,4,5-trimethoxyphenyl)-Δ2,3-oxazoline]
IC50 (NCI-H460 cells; values in nM): 470 nM | IC50 (HCT-15 cells; values in nM): 580 nM

COc1cc(C2CN=C(c3ccc4c(c3)CCCN4C)O2)cc(OC)c1OC (centres unmarked) [Example 14, 2-(N-methyl-tetrahydroquinol-6-yl)-5-(3,4,5-trimethoxyphenyl)-Δ2,3-oxazoline]
inhibition at 100 µM (NCI-H460 cells; NCI-460 cells, 10^-4 M): 100% | inhibition at 100 µM (HCT-15 cells; 10^-4 M): 100%

COc1cc(C2CN=C(C3CC3C)O2)cc(OC)c1OC (centres unmarked) [Example 15, 2-(2-methyl-cyclopropyl)-5-(3,4,5-trimethoxyphenyl)-Δ2,3-oxazoline]
inhibition at 100 µM (NCI-H460 cells; NCI-460 cells, 10^-4 M): 50% | inhibition at 100 µM (HCT-15 cells; 10^-4 M): 50%

COc1cc(C2CN=C(c3ccc4cc[nH]c4c3)O2)cc(OC)c1OC (centres unmarked) [Example 27, 2-(6-indolyl)-5-(3,4,5-trimethoxyphenyl)-Δ2,3-oxazoline]
IC50 (NCI-H460 cells; values in nM): 170 nM | IC50 (HCT-15 cells; values in nM): 83 nM

COc1cc(C2CN=C(c3ccc(N)c(C)c3)O2)cc(OC)c1OC (centres unmarked) [Example 12, 2-(4-amino-3-methylphenyl)-5-(3,4,5-trimethoxyphenyl)-Δ2,3-oxazoline]
inhibition at 100 µM (NCI-H460 cells; NCI-460 cells, 10^-4 M): 100% | inhibition at 100 µM (HCT-15 cells; 10^-4 M): 100%

COc1ccc(C2=NCC(c3cc(OC)c(OC)c(OC)c3)O2)cc1OC(C)=O (centres unmarked) [Example 20, 2-(3-acetoxy-4-methoxyphenyl)-5-(3,4,5-trimethoxyphenyl)-Δ2,3-oxazoline]
inhibition at 100 µM (NCI-H460 cells; NCI-460 cells, 10^-4 M): 100% | inhibition at 100 µM (HCT-15 cells; 10^-4 M): 91%

COc1cc(C2CN=C(c3ccc4[nH]cc(C(=O)C(F)(F)F)c4c3)O2)cc(OC)c1OC (centres unmarked) [Example 76, 2-(3-trifluoroacetyl-5-indolyl)-5-(3,4,5-trimethoxyphenl)-Δ2,3-oxazoline]
IC50 (HCT-15 cells; values given in μM): 1300 nM

COc1cc(OC)cc(C2=NCC(c3cc(OC)c(OC)c(OC)c3)O2)c1 (centres unmarked) [Example 4, 2-(3,5-dimethoxyphenyl)-5-(3,4,5-trimethoxyphenyl)-Δ2,3-oxazoline]
inhibition at 100 µM (NCI-H460 cells; NCI-460 cells, 10^-4 M): 100% | inhibition at 100 µM (HCT-15 cells; 10^-4 M): 100%

COc1cc(C2CN=C(c3ccc4c(c3)c(F)cn4C)O2)cc(OC)c1OC (centres unmarked) [Example 68]
IC50 (NCI-H460 cells; values in nM): 150 nM | IC50 (HCT-15 cells; values in nM): 47 nM

COc1cc(C2CN=C(c3ccc4c(c3)CCN4C)O2)cc(OC)c1OC (centres unmarked) [Example 21, 2-(1-methyl-2,3-dihydro-indol-5-yl)-5-(3,4,5-trimethoxyphenyl)-Δ2,3-oxazoline]
inhibition at 100 µM (NCI-H460 cells; NCI-460 cells, 10^-4 M): 92.4% | inhibition at 100 µM (HCT-15 cells; 10^-4 M): 100%

COc1cc(C2CN=C(c3cc(Br)cc4c3OCC4)O2)cc(OC)c1OC (centres unmarked) [Example 19, 2-(2,3-dihydro-5-bromo-7-benzofuranyl)-5-(3,4,5-trimethoxyphenyl)-Δ2,3-oxazoline]
inhibition at 100 µM (NCI-H460 cells; NCI-460 cells, 10^-4 M): 100% | inhibition at 100 µM (HCT-15 cells; 10^-4 M): 98.9%

COc1ccc(C2=NCC(c3cc(OC)c(OC)c(OC)c3)O2)cc1N (centres unmarked) [Example 39, 2-(3-amino-4-methoxyphenyl)-5-(3,4,5-trimethoxyphenyl)-Δ2,3-oxazoline]
IC50 (NCI-H460 cells; values in nM): 68 nM | IC50 (HCT-15 cells; values in nM): 33 nM

COc1ccc(C2=NCC(c3cc(OC)c(OC)c(OC)c3)O2)cc1O (centres unmarked) [Example 2, 2-(3-hydroxy-4-methoxyphenyl)-5-(3,4,5-trimethoxyphenyl)-Δ2,3-oxazoline]
inhibition at 100 µM (NCI-H460 cells; NCI-460 cells, 10^-4 M): 100% | inhibition at 100 µM (HCT-15 cells; 10^-4 M): 100%

COc1ccc(C2=NCC(c3cc(OC)c(OC)c(OC)c3)O2)cc1NC(=O)[C@@H](N)CO (some centres unmarked) [Example 44]
IC50 (NCI-H460 cells; values given in μM): 3800 nM | IC50 (HCT-15 cells; values given in μM): 6600 nM

COc1cc(C2CN=C(c3cccc4ccn(C)c34)O2)cc(OC)c1OC (centres unmarked) [Example 32, 2-(1-methylindol-7-yl)-5-(3,4,5-trimethoxyphenyl)-Δ2,3-oxazoline]
IC50 (HCT-15 cells; values given in μM): 16000 nM

COc1cc(C2CN=C(c3ccc4[nH]ccc4c3)O2)cc(OC)c1OC (centres unmarked) [Example 11, 2-(indol-5-yl)-5-(3,4,5-trimethoxyphenyl)-Δ2,3-oxazoline]
inhibition at 100 µM (NCI-H460 cells; NCI-460 cells, 10^-4 M): 100% | inhibition at 100 µM (HCT-15 cells; 10^-4 M): 100%

COc1cc(C2CN=C(c3ccc4c(ccn4C)c3)O2)cc(OC)c1OC (centres unmarked) [Example 6, 2-(1-methylindol-5-yl)-5-(3,4,5-trimethoxyphenyl)-Δ2,3-oxazoline]
inhibition at 100 µM (NCI-H460 cells; NCI-460 cells, 10^-4 M): 100% | inhibition at 100 µM (HCT-15 cells; 10^-4 M): 100%

COCn1ccc2cc(C3=NCC(c4cc(OC)c(OC)c(OC)c4)O3)ccc21 (centres unmarked) [Example 70, 2-(1-methoxymethyl-5-indolyl)-5-(3,4,5-trimethoxyphenyl)-Δ2,3-oxazoline]
IC50 (NCI-H460 cells; values in nM): 210 nM | IC50 (HCT-15 cells; values in nM): 170 nM

COc1cc(C2CN=C(c3cc(C)c4[nH]ccc4c3)O2)cc(OC)c1OC (centres unmarked) [Example 72, 2-(7-methyl-5-indolyl)-5-(3,4,5-trimethoxyphenyl)-Δ2,3-oxazoline]
IC50 (NCI-H460 cells; values in nM): 36 nM | IC50 (HCT-15 cells; values in nM): 11 nM

COc1cc(C2CN=C(c3cc(F)c4[nH]ccc4c3)O2)cc(OC)c1OC (centres unmarked) [Example 63, 2-(7-fluoro-5-indolyl)-5-(3,4,5-trimethoxyphenyl)-Δ2,3-oxazoline]
IC50 (NCI-H460 cells; values in nM): 43 nM | IC50 (HCT-15 cells; values in nM): 20 nM

COCn1ccc2cc(C3=NCC(c4cc(OC)c(OC)c(OC)c4)O3)ccc21 (centres unmarked) [Example 9, 2-(1-methoxymethylindol-5-yl)-5-(3,4,5-trimethoxyphenyl)-Δ2,3-oxazoline]
inhibition at 100 µM (NCI-H460 cells; NCI-460 cells, 10^-4 M): 100% | inhibition at 100 µM (HCT-15 cells; 10^-4 M): 100%

COc1cc(C2CN=C(c3cc(C)c4c(ccn4C)c3)O2)cc(OC)c1OC (centres unmarked) [Example 73, 2-(1,7-dimethyl-5-indolyl)-5-(3,4,5-trimethoxyphenyl)-Δ2,3-oxazoline]
IC50 (NCI-H460 cells; values in nM): 41 nM | IC50 (HCT-15 cells; values in nM): 34 nM

COc1cc(C2CN=C(c3cccc4c3ccn4C)O2)cc(OC)c1OC (centres unmarked) [Example 30, 2-(1-methylindol-4-yl)-5-(3,4,5-trimethoxyphenyl)-Δ2,3-oxazoline]
IC50 (NCI-H460 cells; values in nM): 28 nM | IC50 (HCT-15 cells; values in nM): 24 nM
